Reference: PubChem BioAssay AID1963448 (Molecular Pharmacology Branch, DTP, NCI, 2024)

Tested on: 616215-338-R-J1-PDC complex spheroid growth, % test/control
Test: Anticancer human tumor 616215-338-R-J1-PDC patient-derived colon adenocarcinoma cell line growth inhibition [Asc]
Details: for IC50: curve of first compound; for viability, T/C: stronger effect = lower value
Procedure, shortened: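 Tumor cells were grown as multicellular spheroids with stromal HUVEC and mesenchymal stem cells and treated singly or in combination. Concentrations fell in half-log steps from the clinical Cmax, or from 10 microM where none was known.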

[1] = second compound 0.00316 µM, first compound 0.0316 µM
[2] = second compound 0.00316 µM, first compound 0.1 µM
[3] = second compound 0.01 µM, first compound 0.0316 µM
[4] = second compound 0.01 µM, first compound 0.1 µM
[5] = second compound 0.0316 µM, first compound 0.0316 µM
[6] = second compound 0.0316 µM, first compound 0.1 µM
[7] = second compound 0.1 µM, first compound 0.0316 µM
[8] = second compound 0.1 µM, first compound 0.1 µM
[9] = second compound 0.316 µM, first compound 0.0316 µM
[10] = second compound 0.316 µM, first compound 0.1 µM
[11] = second compound 1 µM, first compound 0.0316 µM
[12] = second compound 1 µM, first compound 0.1 µM
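Note: spheroids exposed to agents for seven days before readout.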
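Throughout, for viability, T/C: 100% = DMSO vehicle control viability.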

`Cc1nc(N2CCC3(CC2)COC(C)C3N)c(CO)nc1Sc1ccnc(N)c1Cl` (centres undefined) + CCN1C(C(=O)NC23CCC(C(=O)O)(CC2)CC3)C(c2cccc(Cl)c2F)C2(C(=O)Nc3cc(Cl)ccc32)C12CCCCC2 was tested, and the IC50 (second compound 0.03 µM) was over 3000 nM, the IC50 (second compound 0.0949 µM) was over 3000 nM and the IC50 (second compound 0.3 µM) was 303 nM. For the same compound, the IC50 (second compound 0.949 µM) was 338 nM, the IC50 (second compound 3 µM) was 40.3 nM and the viability, T/C (second compound 0.03 µM, first compound 0.00949 µM) was 99.4%. For the same compound, the viability, T/C (second compound 0.03 µM, first compound 0.03 µM) was 102%, the viability, T/C (second compound 0.03 µM, first compound 0.0949 µM) was 98.4% and the viability, T/C (second compound 0.03 µM, first compound 0.3 µM) was 91.8%. It also gave a viability, T/C (second compound 0.03 µM, first compound 0.949 µM) of 86.3%, a viability, T/C (second compound 0.03 µM, first compound 3 µM) of 74.4% and a viability, T/C (second compound 0.0949 µM, first compound 0.00949 µM) of 101%. It also gave a viability, T/C (second compound 0.0949 µM, first compound 0.03 µM) of 89.2%, a viability, T/C (second compound 0.0949 µM, first compound 0.0949 µM) of 84.1% and a viability, T/C (second compound 0.0949 µM, first compound 0.3 µM) of 87.2%. It also gave a viability, T/C (second compound 0.0949 µM, first compound 0.949 µM) of 80.5%, a viability, T/C (second compound 0.0949 µM, first compound 3 µM) of 64.7% and a viability, T/C (second compound 0.3 µM, first compound 0.00949 µM) of 69.8%. The viability, T/C (second compound 0.3 µM, first compound 0.03 µM) was 65.6%, the viability, T/C (second compound 0.3 µM, first compound 0.0949 µM) was 65.1% and the viability, T/C (second compound 0.3 µM, first compound 0.3 µM) was 49.4%. For the same compound, the viability, T/C (second compound 0.3 µM, first compound 0.949 µM) was 39.2%, the viability, T/C (second compound 0.3 µM, first compound 3 µM) was 35% and the viability, T/C (second compound 0.949 µM, first compound 0.00949 µM) was 65.9%. It also gave a viability, T/C (second compound 0.949 µM, first compound 0.03 µM) of 65%, a viability, T/C (second compound 0.949 µM, first compound 0.0949 µM) of 66.6% and a viability, T/C (second compound 0.949 µM, first compound 0.3 µM) of 48.3%. It also gave a viability, T/C (second compound 0.949 µM, first compound 0.949 µM) of 37.7%, a viability, T/C (second compound 0.949 µM, first compound 3 µM) of 24.8% and a viability, T/C (second compound 3 µM, first compound 0.00949 µM) of 53.3%. For the same compound, the viability, T/C (second compound 3 µM, first compound 0.03 µM) was 49.2%, the viability, T/C (second compound 3 µM, first compound 0.0949 µM) was 47.8% and the viability, T/C (second compound 3 µM, first compound 0.3 µM) was 38.8%. It also gave a viability, T/C (second compound 3 µM, first compound 0.949 µM) of 23.9% and a viability, T/C (second compound 3 µM, first compound 3 µM) of 11.6%.
With `Cn1ncnc1[C@H]1c2n[nH]c(=O)c3cc(F)cc(c23)N[C@@H]1c1ccc(F)cc1` + CNC(C)C(=O)NC1CN(S(=O)(=O)c2cccc(S(=O)(=O)N3CCC4CCC(C(=O)NC(c5ccccc5)c5ccccc5)N4C(=O)C(NC(=O)C(C)NC)C3)c2)CCC2CCC(C(=O)NC(c3ccccc3)c3ccccc3)N2C1=O the IC50 (second compound 0.00316 µM) was under 0.316 nM, the IC50 (second compound 0.01 µM) was over 100 nM and the IC50 (second compound 0.0316 µM) was over 100 nM. For the same compound, the IC50 (second compound 0.1 µM) was over 100 nM, the IC50 (second compound 0.316 µM) was over 100 nM and the IC50 (second compound 1 µM) was over 100 nM. It also gave a viability, T/C (second compound 0.00316 µM, first compound 0.000316 µM) of 10.7%, a viability, T/C (second compound 0.00316 µM, first compound 0.001 µM) of 10.5% and a viability, T/C (second compound 0.00316 µM, first compound 0.00316 µM) of 7.58%. The viability, T/C (second compound 0.00316 µM, first compound 0.01 µM) was 9.25%, the viability, T/C [1] was 9.45% and the viability, T/C [2] was 8.48%. It also gave a viability, T/C (second compound 0.01 µM, first compound 0.000316 µM) of 95%, a viability, T/C (second compound 0.01 µM, first compound 0.001 µM) of 101% and a viability, T/C (second compound 0.01 µM, first compound 0.00316 µM) of 97.2%. It also gave a viability, T/C (second compound 0.01 µM, first compound 0.01 µM) of 92.4%, a viability, T/C [3] of 95.1% and a viability, T/C [4] of 98.5%. For the same compound, the viability, T/C (second compound 0.0316 µM, first compound 0.000316 µM) was 91.5%, the viability, T/C (second compound 0.0316 µM, first compound 0.001 µM) was 95.5% and the viability, T/C (second compound 0.0316 µM, first compound 0.00316 µM) was 101%. The viability, T/C (second compound 0.0316 µM, first compound 0.01 µM) was 102%, the viability, T/C [5] was 100% and the viability, T/C [6] was 110%. The viability, T/C (second compound 0.1 µM, first compound 0.000316 µM) was 106%, the viability, T/C (second compound 0.1 µM, first compound 0.001 µM) was 108% and the viability, T/C (second compound 0.1 µM, first compound 0.00316 µM) was 103%. For the same compound, the viability, T/C (second compound 0.1 µM, first compound 0.01 µM) was 108%, the viability, T/C [7] was 102% and the viability, T/C [8] was 103%. The viability, T/C (second compound 0.316 µM, first compound 0.000316 µM) was 97.6%, the viability, T/C (second compound 0.316 µM, first compound 0.001 µM) was 104% and the viability, T/C (second compound 0.316 µM, first compound 0.00316 µM) was 102%. For the same compound, the viability, T/C (second compound 0.316 µM, first compound 0.01 µM) was 104%, the viability, T/C [9] was 102% and the viability, T/C [10] was 98.4%. It also gave a viability, T/C (second compound 1 µM, first compound 0.000316 µM) of 107%, a viability, T/C (second compound 1 µM, first compound 0.001 µM) of 99.2% and a viability, T/C (second compound 1 µM, first compound 0.00316 µM) of 97.2%. The viability, T/C (second compound 1 µM, first compound 0.01 µM) was 99.2%, the viability, T/C [11] was 96% and the viability, T/C [12] was 101%.
Compound `O=C(c1cc(Cc2n[nH]c(=O)c3ccccc23)ccc1F)N1CCN(C(=O)C2CC2)CC1` + CNC(C)C(=O)NC1CN(S(=O)(=O)c2cccc(S(=O)(=O)N3CCC4CCC(C(=O)NC(c5ccccc5)c5ccccc5)N4C(=O)C(NC(=O)C(C)NC)C3)c2)CCC2CCC(C(=O)NC(c3ccccc3)c3ccccc3)N2C1=O has an IC50 (second compound 0.00316 µM) of under 31.6 nM, an IC50 (second compound 0.01 µM) of over 10000 nM and an IC50 (second compound 0.0316 µM) of over 10000 nM. It also gave an IC50 (second compound 0.1 µM) of over 10000 nM, an IC50 (second compound 0.316 µM) of over 10000 nM and an IC50 (second compound 1 µM) of over 10000 nM. The viability, T/C [1] was 8.47%, the viability, T/C [2] was 8.86% and the viability, T/C (second compound 0.00316 µM, first compound 0.316 µM) was 12.9%. The viability, T/C (second compound 0.00316 µM, first compound 1 µM) was 10.3%, the viability, T/C (second compound 0.00316 µM, first compound 3.16 µM) was 8.76% and the viability, T/C (second compound 0.00316 µM, first compound 10 µM) was 7.09%. For the same compound, the viability, T/C [3] was 93.3%, the viability, T/C [4] was 88.3% and the viability, T/C (second compound 0.01 µM, first compound 0.316 µM) was 97.2%. The viability, T/C (second compound 0.01 µM, first compound 1 µM) was 95.6%, the viability, T/C (second compound 0.01 µM, first compound 3.16 µM) was 80.8% and the viability, T/C (second compound 0.01 µM, first compound 10 µM) was 76.9%. It also gave a viability, T/C [5] of 103%, a viability, T/C [6] of 91% and a viability, T/C (second compound 0.0316 µM, first compound 0.316 µM) of 102%. The viability, T/C (second compound 0.0316 µM, first compound 1 µM) was 103%, the viability, T/C (second compound 0.0316 µM, first compound 3.16 µM) was 94.9% and the viability, T/C (second compound 0.0316 µM, first compound 10 µM) was 78.1%. The viability, T/C [7] was 100%, the viability, T/C [8] was 101% and the viability, T/C (second compound 0.1 µM, first compound 0.316 µM) was 94.2%. For the same compound, the viability, T/C (second compound 0.1 µM, first compound 1 µM) was 95.5%, the viability, T/C (second compound 0.1 µM, first compound 3.16 µM) was 95.2% and the viability, T/C (second compound 0.1 µM, first compound 10 µM) was 78%. The viability, T/C [9] was 104%, the viability, T/C [10] was 98% and the viability, T/C (second compound 0.316 µM, first compound 0.316 µM) was 105%. The viability, T/C (second compound 0.316 µM, first compound 1 µM) was 106%, the viability, T/C (second compound 0.316 µM, first compound 3.16 µM) was 100% and the viability, T/C (second compound 0.316 µM, first compound 10 µM) was 69.9%. The viability, T/C [11] was 102%, the viability, T/C [12] was 102% and the viability, T/C (second compound 1 µM, first compound 0.316 µM) was 96.2%. It also gave a viability, T/C (second compound 1 µM, first compound 1 µM) of 97.1%, a viability, T/C (second compound 1 µM, first compound 3.16 µM) of 94.1% and a viability, T/C (second compound 1 µM, first compound 10 µM) of 80.9%.
